The results in this text go back to US5112382A, “Halopropargyl compounds, compositions, uses and processes of preparation” (Rohm and Haas Company, priority 1990, dated 1992).

One experiment relates to Pseudomonas fluorescens. As to the kind of experiment: MIC, broth two-fold serial dilution test, Psfl. It is filed as cell-based. The conditions noted are these: read-out: Minimum Inhibitory Concentration (MIC). The method, then:
(§1) A minimum inhibitory concentration (MIC) value is obtained using a broth, two-fold serial dilution test performed as follows: […] A volume of the stock solution is dispensed into culture media to give an initial starting test concentration of 500 ppm compound. The test is carried out by adding and equal volume of broth to each vessel in the dilution series, except for the first vessel. The first vessel contains twice the volume of broth plus the initial concentration of test compound. One half of the broth from the first vessel is transferred to the second vessel. After being mixed, one half the resulting volume is removed from the second vessel and transferred to the third vessel. The entire cycle is repeated sufficiently to give a series of concentrations amounting to 500, 250, 125, 63, 31, 16, 8, and 4 ppm (or 100, 50, 25, 12.5, 6.2, 3.1, 1.6, and 0.8), respectively. Each vessel is then inoculated with a cell suspension of the appropriate test organism. Bacteria are grown in both and fungi on agar slats for a time and at a temperature appropriate to the species being tested. At the end of the growth period, the broth is vortexed to disperse the cells. In the case of fungi, the pores are harvested by pipetting water onto the slant and dislodging the spores with a sterile loop. The cell/spore suspension is standardized by controlling incubation time, temperature, and the volume of the diluent. The suspension is then used to inoculate the vessels containing the broth compound. The vessels are then incubated at the appropriate temperature. After the incubation, the vessels are examined for growth/no growth. The minimum inhibitory concentration (MIC) is defined as the lowest concentration of compound that results in complete inhibition of growth of the test organism.

For the next experiment, the system named is Pseudomonas aerugenosa. As to the kind of experiment: MIC, broth two-fold serial dilution test, Psae. The conditions noted are these: read-out: Minimum Inhibitory Concentration (MIC). It is filed as cell-based. As to the method: as §1
In the next experiment the test system is Escherichia coli. As to the kind of experiment: MIC, broth two-fold serial dilution test, Ecol. It is filed as cell-based. The conditions noted are these: read-out: Minimum Inhibitory Concentration (MIC). The method, then:
as §1

Another experiment has as its system Staphylococcus aureus. As to the kind of experiment: MIC, broth two-fold serial dilution test, Saur. Format: cell-based. Particulars: read-out: Minimum Inhibitory Concentration (MIC). The method, then: as §1
Another experiment deals with Aspergillus niger. As to the kind of experiment: MIC, broth two-fold serial dilution test, Anig. It is filed as cell-based. The conditions noted are these: read-out: Minimum Inhibitory Concentration (MIC). The method, then: as §1
For another experiment, the system named is Aureobasidium pullulans. As to the kind of experiment: MIC, broth two-fold serial dilution test, Apul. Format: cell-based. The conditions noted are these: read-out: Minimum Inhibitory Concentration (MIC). As to the method:
as §1

Another experiment concerns Cochliobolus sativus. As to the kind of experiment: In-vitro plant fungicide test, HEL. It is filed as cell-based. The conditions noted are these: Bipolaris sorokiniana, read-out: % Control; for inhibition of growth at 25 ppm: rate 25 PPM; for inhibition of growth at 50 ppm: rate 50 PPM.
The test system of a further experiment is Phytophthora capsici. As to the kind of experiment: In-vitro plant fungicide test, PHY. Particulars: read-out: % Control; for inhibition of growth at 25 ppm: rate 25 PPM; for inhibition of growth at 50 ppm: rate 50 PPM. It is filed as cell-based.
For experiment [1], the system named is Piricularia oryzae. As to the kind of experiment: microbe, parasite or virus in culture. The conditions noted are these: read-out: % Control. It is filed as cell-based.
The next experiment relates to Pythium ultimum. As to the kind of experiment: In-vitro plant fungicide test, PYU. Format: cell-based. The conditions noted are these: Globisporangium ultimum, read-out: % Control; for inhibition of growth at 25 ppm: rate 25 PPM; for inhibition of growth at 50 ppm: rate 50 PPM.
The subject of the next experiment is Rhizoctonia solani. As to the kind of experiment: In-vitro plant fungicide test, RHI. Format: cell-based. Particulars: read-out: % Control; for inhibition of growth at 25 ppm: rate 25 PPM; for inhibition of growth at 50 ppm: rate 50 PPM.
The next experiment concerns Xanthomonas campestris. As to the kind of experiment: In-vitro plant fungicide test, XAN. It is filed as cell-based. The conditions noted are these: read-out: % Control.
In experiment [2] the test system is Pseudoperonospora cubensis. As to the kind of experiment: whole plant or invertebrate. It is filed as in vivo. Particulars: in Cucumis sativus, 168 h.
In experiment [3] the test system is Piricularia oryzae. As to the kind of experiment: whole plant or invertebrate. It is filed as in vivo. The conditions noted are these: Pyricularia oryzae, 192 h, read-out: % Control.
The subject of experiment [4] is Septoria glume blotch of wheat. As to the kind of experiment: whole plant or invertebrate. It is filed as in vivo. The conditions noted are these: Triticum aestivum.
In another experiment the test system is Phytophthora infestans. As to the kind of experiment: whole plant or invertebrate. It is filed as in vivo. The conditions noted are these: in Solanum lycopersicum, 96 h, read-out: % Control.
Experiment [5] deals with Puccinia recondita (f. sp. tritici Races PKB and PLD). As to the kind of experiment: whole plant or invertebrate. Format: in vivo. The conditions noted are these: 240 h.
Experiment [6] deals with Erysiphe graminis (f. sp. tritici). As to the kind of experiment: whole plant or invertebrate. Format: in vivo. The conditions noted are these: Blumeria graminis.
In a further experiment the test system is Botrytis cinerea. As to the kind of experiment: In-vitro plant fungicide test, BOC. The conditions noted are these: read-out: % Control.
In another experiment the test system is Fusarium roseum. As to the kind of experiment: microbe, parasite or virus in culture. The conditions noted are these: Fusarium sambucinum, read-out: % Control.
The subject of the next experiment is Septoria nodorum. As to the kind of experiment: In-vitro plant fungicide test, SEP. Particulars: Parastagonospora nodorum, read-out: % Control; for inhibition of growth at 25 ppm: rate 25 PPM; for inhibition of growth at 50 ppm: rate 50 PPM. Format: cell-based.

Converted amounts (≈) assume the structure as drawn. Like-named read-outs stand apart in the source and are kept apart here.

Regarding `COC(=O)N(CC#CI)N=Cc1ccc(Cl)cc1` [Compound 5, N'-Methoxycarbonyl-N'-3-iodopropargyl 4-chlorobenzaldehyde hydrazone], the MIC was 125 µg/mL (≈ 332 µM) in the experiment with Pseudomonas fluorescens; 16 µg/mL (≈ 42.5 µM) in the experiment with Pseudomonas aerugenosa; 125 µg/mL (≈ 332 µM) with Escherichia coli; 8 µg/mL (≈ 21.2 µM) in the experiment on Staphylococcus aureus; < 4 µg/mL in the experiment with Aspergillus niger; < 4 µg/mL in the experiment on Aureobasidium pullulans. The inhibition of growth at 25 ppm in the experiment on Cochliobolus sativus turned out to be 100%; in the experiment with Phytophthora capsici, 50%; in the experiment on Piricularia oryzae [1], 100%; in the experiment with Pythium ultimum it was 50%; in the experiment on Rhizoctonia solani, 75%; in the experiment on Xanthomonas campestris (XAN, rate 25 PPM), 0%. Moreover, the inhibition of growth at 25 ppm with Botrytis cinerea was found to be 0%; in the experiment on Fusarium roseum, 95%. Moreover, the pest or weed control at 200 ppm is 99% in experiment [2]; 95% with Piricularia oryzae [3]; 0% in experiment [4]; 90% in the experiment with Phytophthora infestans; 80% in experiment [5]; 0% in experiment [6].

As to `COC(=O)N(CC#CBr)N=Cc1ccc(F)cc1` [Compound 7, N'-Methoxycarbonyl-N'-3-bromopropargyl 4-fluorobenzaldehyde hydrazone], the MIC in the experiment with Pseudomonas fluorescens amounted to 125 µg/mL (≈ 399 µM); in the experiment on Pseudomonas aerugenosa, 31 µg/mL (≈ 99 µM); in the experiment on Escherichia coli, 125 µg/mL (≈ 399 µM); with Staphylococcus aureus, 63 µg/mL (≈ 201 µM); with Aspergillus niger it was 31 µg/mL (≈ 99 µM); in the experiment on Aureobasidium pullulans it was 31 µg/mL (≈ 99 µM). Also, the inhibition of growth at 25 ppm with Cochliobolus sativus came out at 0%; with Phytophthora capsici, 0%; in the experiment on Piricularia oryzae [1], 0%; in the experiment on Pythium ultimum, 0%; in the experiment on Rhizoctonia solani it was 0%; in the experiment with Septoria nodorum, 100%. The inhibition of growth at 25 ppm with Xanthomonas campestris, in the experiment with Botrytis cinerea and in the experiment on Fusarium roseum was 0% in each case. The inhibition of growth at 50 ppm came to 0% with Cochliobolus sativus; 90% with Phytophthora capsici; 90% in the experiment on Piricularia oryzae [1]; 100% in the experiment with Pythium ultimum; 0% in the experiment with Rhizoctonia solani; 0% with Septoria nodorum. Also, the inhibition of growth at 50 ppm stood at 0% with Xanthomonas campestris (XAN, rate 50 PPM); 0% in the experiment with Botrytis cinerea; 0% in the experiment on Fusarium roseum. Further, the pest or weed control at 200 ppm (in [2]; in the experiment on Piricularia oryzae [3]; in [4]; in the experiment on Phytophthora infestans; in [5]; in experiment [6]) was 0% in each case.

For `COC(=O)N(CC#CI)N=Cc1ccc([N+](=O)[O-])o1` [Compound 8, N'-Methoxycarbonyl-N'-3-iodopropargyl 5-nitro-2-furancarboxaldehyde hydrazone], the MIC with Pseudomonas fluorescens was 250 µg/mL (≈ 663 µM); in the experiment on Pseudomonas aerugenosa, 125 µg/mL (≈ 331 µM); in the experiment with Escherichia coli, 63 µg/mL (≈ 167 µM); in the experiment on Staphylococcus aureus, < 4 µg/mL; with Aspergillus niger, < 4 µg/mL; with Aureobasidium pullulans it was < 4 µg/mL. Besides, the inhibition of growth at 50 ppm was 100% with Cochliobolus sativus; 100% with Piricularia oryzae [1]; 100% in the experiment with Pythium ultimum; 100% in the experiment with Rhizoctonia solani; 100% with Septoria nodorum; 0% with Xanthomonas campestris. Further, the inhibition of growth at 50 ppm in the experiment on Botrytis cinerea came to 0%; with Fusarium roseum, 100%. The pest or weed control at 200 ppm in experiment [2] was determined as 0%; with Piricularia oryzae [3], 90%; in [4], 0%; with Phytophthora infestans, 0%; in experiment [5] it was 0%; in [6], 0%.

Consider `COC(=O)N(CC#CI)N=Cc1ccc(C#N)cc1` [Compound 9, N'-Methoxycarbonyl-N'-3-iodopropargyl 4-cyanobenzaldehyde hydrazone], for which the MIC in the experiment with Pseudomonas fluorescens is > 500 µg/mL; with Pseudomonas aerugenosa it was > 500 µg/mL; in the experiment on Escherichia coli, > 500 µg/mL; in the experiment with Staphylococcus aureus it was > 500 µg/mL; in the experiment on Aspergillus niger it was > 250 µg/mL. In addition, the inhibition of growth at 50 ppm was found to be 100% in the experiment with Cochliobolus sativus; 95% in the experiment on Phytophthora capsici; 100% with Piricularia oryzae [1]; 100% with Pythium ultimum; 100% in the experiment on Rhizoctonia solani; 100% in the experiment with Septoria nodorum. Also, the inhibition of growth at 50 ppm was determined as 0% in the experiment on Xanthomonas campestris (XAN, rate 50 PPM); 50% in the experiment with Botrytis cinerea; 100% in the experiment on Fusarium roseum. The pest or weed control at 200 ppm in experiment [2] is 85%; in the experiment on Piricularia oryzae [3], 0%; in experiment [4] it was 0%; in the experiment on Phytophthora infestans, 0%; in experiment [5], 0%; in experiment [6], 0%.

Regarding `COC(=O)N(CC#CI)N=Cc1ccc(F)cc1` [Compound 10, N'-Methoxycarbonyl-N'-3-iodopropargyl 4-fluorobenzaldehyde hydrazone], the MIC with Pseudomonas fluorescens was > 500 µg/mL; in the experiment on Pseudomonas aerugenosa it was > 500 µg/mL; in the experiment on Escherichia coli, > 500 µg/mL; with Staphylococcus aureus, < 4 µg/mL; in the experiment with Aspergillus niger it was < 4 µg/mL; in the experiment on Aureobasidium pullulans, < 4 µg/mL. In addition, the inhibition of growth at 50 ppm with Cochliobolus sativus, in the experiment with Phytophthora capsici, in the experiment on Piricularia oryzae [1], in the experiment with Pythium ultimum, with Rhizoctonia solani and in the experiment on Septoria nodorum was 100% throughout. The inhibition of growth at 50 ppm was found to be 0% in the experiment on Xanthomonas campestris (XAN, rate 50 PPM); 0% with Botrytis cinerea; 100% with Fusarium roseum. The pest or weed control at 200 ppm in experiment [2] came to 50%; with Piricularia oryzae [3], 50%; in experiment [4], 0%; in the experiment on Phytophthora infestans it was 0%; in experiment [5] it was 0%; in experiment [6] it was 50%.

On to `CCOC(=O)N(CC#CI)N=Cc1ccc(Cl)c(Cl)c1` [Compound 13, N'-Ethoxycarbonyl-N'-3-iodopropargyl 3,4-dichlorobenzaldehyde hydrazone], for which the MIC is > 100 µg/mL with Pseudomonas fluorescens; > 100 µg/mL in the experiment on Pseudomonas aerugenosa; > 100 µg/mL with Escherichia coli; > 100 µg/mL with Staphylococcus aureus; 100 µg/mL (≈ 235 µM) in the experiment on Aspergillus niger; > 100 µg/mL in the experiment with Aureobasidium pullulans. Besides, the inhibition of growth at 25 ppm in the experiment on Cochliobolus sativus came out at 50%; in the experiment with Phytophthora capsici it was 0%; in the experiment with Piricularia oryzae [1] it was 100%; in the experiment on Pythium ultimum it was 0%; in the experiment on Rhizoctonia solani it was 90%; in the experiment on Septoria nodorum, 50%. In addition, the inhibition of growth at 25 ppm in the experiment with Xanthomonas campestris (XAN, rate 25 PPM) was determined as 0%; in the experiment with Botrytis cinerea it was 0%; in the experiment with Fusarium roseum, 75%. Moreover, the pest or weed control at 200 ppm in experiment [2] is 85%; in the experiment on Piricularia oryzae [3], 0%; in [4], 0%; in the experiment on Phytophthora infestans it was 0%; in experiment [5] it was 50%; in experiment [6] it was 50%.
